In ChEMBL document CHEMBL1201862, “PubChem BioAssay data set” (2004):
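The compound was tested at five concentrations on cells cultured in 96-well plates, with a 48-hour exposure period. GI50 marks 50% less growth.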 The source made the active and inactive calls. No stated cut-off is given here; in the data, active = GI50 up to about 1.1 µM and inactive = higher. Square brackets hold non-standard residues; d marks the D form. Peptide text beside a SMILES is read from it. * marks the point of attachment. NMeV = CN[C@H](C(=O)O)C(C)C; X28 = COc1ccc(CN*)c(OC)c1; Octanoyl = CCCCCCCC(=O)*; dNMeA = CN[C@H](C)C(=O)O

Key:
Assay in all cases: NCI anticancer screen, dose series, 48 h
[1] = test system: SF-268
[2] = test system: HOP-92
[3] = test system: Hs-578T
[4] = test system: A549
[5] = test system: CCRF-CEM
[6] = test system: SW-620
[7] = test system: A498
[8] = test system: ACHN
[9] = test system: MDA-MB-231
[10] = test system: MDA-N
[11] = test system: OVCAR-4
[12] = test system: PC-3
[13] = test system: KM12
[14] = test system: HT-29
[15] = test system: SK-MEL-2
[16] = test system: EKVX
[17] = test system: SR
[18] = test system: CAKI-1
[19] = test system: T47D

| Structure (SMILES) | GI50 [1] | GI50 [2] | GI50 [3] | GI50 [4] | GI50 [5] | GI50 [6] | GI50 [7] | GI50 [8] | GI50 [9] | GI50 [10] | GI50 [11] | GI50 [12] | GI50 [13] | GI50 [14] | GI50 [15] | GI50 [16] | GI50 [17] | GI50 [18] | GI50 [19] |
| --- | --- | --- | --- | --- | --- | --- | --- | --- | --- | --- | --- | --- | --- | --- | --- | --- | --- | --- | --- |
| CC(=O)OI1NC(=O)c2ccccc21 | > 100 µM (inactive) | > 100 µM (inactive) | > 100 µM (inactive) | > 100 µM (inactive) | 76.7 µM (inactive) | > 100 µM (inactive) | > 100 µM (inactive) | > 100 µM (inactive) | > 100 µM (inactive) | > 100 µM (inactive) | > 100 µM (inactive) | > 100 µM (inactive) | > 100 µM (inactive) | > 100 µM (inactive) | > 100 µM (inactive) | > 100 µM (inactive) | > 100 µM (inactive) |  |  |
| CCCCCCCC(=O)N[C@H](C(=O)N[C@H](C(=O)N(C)[C@H](C(=O)N1CCC[C@H]1C(=O)N(C)[C@H](C)C(=O)NCc1ccc(OC)cc1OC)C(C)C)C(C)C)C(C)C (Octanoyl-VV[NMeV]P[dNMeA]-X28) | 15.2 µM (inactive) | 7.6 µM (inactive) | 9.16 µM (inactive) | 6.55 µM (inactive) | 11.5 µM (inactive) | 7.71 µM (inactive) | 1.95 µM (inactive) | 5.26 µM (inactive) | 10.5 µM (inactive) |  | 6.14 µM (inactive) | 7.01 µM (inactive) | 4.62 µM (inactive) | 4.23 µM (inactive) | 12.9 µM (inactive) | 6.89 µM (inactive) | 17.6 µM (inactive) | 16.4 µM (inactive) | 4.29 µM (inactive) |
| CCOC(=O)c1c2c(n(-c3ccc(OC)cc3)c1C)C(=O)C(=O)c1ccccc1-2 | 1.64 µM (inactive) | 1.85 µM (inactive) | 2.18 µM (inactive) | 1.51 µM (inactive) | 1.27 µM (inactive) | 1.24 µM (inactive) |  | 1.14 µM (inactive) | 1.29 µM (inactive) |  | 0.624 µM (active) | 2.18 µM (inactive) | 1.82 µM (inactive) | 2.34 µM (inactive) | 3.27 µM (inactive) | 2.01 µM (inactive) |  | 1.42 µM (inactive) | 1.01 µM (active) |
| Nc1ncnc2c1ncn2C1OC(CSC(F)F)C(O)C1O (stereo not given) | > 100 µM (inactive) | > 100 µM (inactive) |  | > 100 µM (inactive) | > 100 µM (inactive) | > 100 µM (inactive) | > 100 µM (inactive) | > 100 µM (inactive) |  |  | > 100 µM (inactive) |  | > 100 µM (inactive) | > 100 µM (inactive) | > 100 µM (inactive) | > 100 µM (inactive) |  | > 100 µM (inactive) |  |
| Cc1c2cc[n+](C)cc2c(C)c2c1[nH]c1ccc(Oc3ccccc3)cc12 | 0.738 µM (active) | 1.28 µM (inactive) |  | 0.324 µM (active) | 1.19 µM (inactive) | 0.843 µM (active) |  | 2.05 µM (inactive) |  |  | 1.4 µM (inactive) |  | 0.59 µM (active) | 0.764 µM (active) | 1.1 µM (active) | 3.61 µM (inactive) |  | 1.89 µM (inactive) |  |
| OCCCSc1ccccc1SCCCO | > 100 µM (inactive) | < 0.01 µM (active) |  | > 100 µM (inactive) | > 100 µM (inactive) | > 100 µM (inactive) |  |  | > 100 µM (inactive) | > 100 µM (inactive) | > 100 µM (inactive) | > 100 µM (inactive) | > 100 µM (inactive) | > 100 µM (inactive) |  | > 100 µM (inactive) | > 100 µM (inactive) |  | > 100 µM (inactive) |
| CCCCCCCCCCCCCCCC(=O)OCC(O)C1OC(=O)C(O)=C1O (stereo not given) | 26.4 µM (inactive) | < 0.01 µM (active) |  | 21.8 µM (inactive) | 23.7 µM (inactive) | 37.9 µM (inactive) | 35.7 µM (inactive) | 34 µM (inactive) | 28.8 µM (inactive) | 30.8 µM (inactive) | 52.8 µM (inactive) | 92 µM (inactive) | 23.4 µM (inactive) | 12.8 µM (inactive) | 34.1 µM (inactive) | > 100 µM (inactive) | 58.2 µM (inactive) | 43.9 µM (inactive) | 97.9 µM (inactive) |
| O=C1c2ccsc2C(=O)c2sc(CO)cc21 | 1.11 µM (active) | 0.333 µM (active) | 0.0611 µM (active) | 0.0507 µM (active) | 0.207 µM (active) | 0.0564 µM (active) | 0.331 µM (active) | 0.0681 µM (active) | 0.159 µM (active) | < 0.0133 µM (active) | 0.167 µM (active) | 0.126 µM (active) | 1.79 µM (inactive) | 0.219 µM (active) | 0.0929 µM (active) | 1.65 µM (inactive) | 0.0984 µM (active) | 6.47 µM (inactive) |  |
| CC(C)(C)/C(O)=C\c1nc2cc(F)c(F)cc2[nH]c1=O | > 100 µM (inactive) | > 100 µM (inactive) | > 100 µM (inactive) |  | > 100 µM (inactive) | > 100 µM (inactive) | > 100 µM (inactive) | > 100 µM (inactive) | 25.1 µM (inactive) |  | > 100 µM (inactive) | > 100 µM (inactive) | > 100 µM (inactive) | > 100 µM (inactive) | > 100 µM (inactive) | > 100 µM (inactive) | > 100 µM (inactive) | > 100 µM (inactive) | > 100 µM (inactive) |
| COC1CC(COCc2ccccc2)CC(OC)O1 (stereo not given) | > 100 µM (inactive) | > 100 µM (inactive) | > 100 µM (inactive) | > 100 µM (inactive) | 0.0198 µM (active) | > 100 µM (inactive) | > 100 µM (inactive) | > 100 µM (inactive) |  | > 100 µM (inactive) |  |  | > 100 µM (inactive) | > 100 µM (inactive) |  | > 100 µM (inactive) | > 100 µM (inactive) | > 100 µM (inactive) | > 100 µM (inactive) |
| N#CC(C#N)=c1c2ccccc2c(=C(C#N)C#N)c2ccccc12 | 22.9 µM (inactive) | 32.9 µM (inactive) | 20.8 µM (inactive) | 31 µM (inactive) | 7.46 µM (inactive) | 24.8 µM (inactive) | 23.8 µM (inactive) | 20 µM (inactive) | 16.4 µM (inactive) | 18.7 µM (inactive) |  | 16.1 µM (inactive) | 18.1 µM (inactive) | 18.6 µM (inactive) | 17.1 µM (inactive) |  |  | 14.9 µM (inactive) |  |
| O=C(CCCN1CCC(Nc2ccccc2)(c2nnnn2C2CCCCC2)CC1)c1ccc(F)cc1 | 2.4 µM (inactive) |  | 10.3 µM (inactive) | 3.49 µM (inactive) | 16.4 µM (inactive) | 6.76 µM (inactive) | > 10 µM (inactive) | 4.58 µM (inactive) | 8.65 µM (inactive) | 5.28 µM (inactive) | 6.34 µM (inactive) | 3.94 µM (inactive) | 8.47 µM (inactive) | 3.03 µM (inactive) | 4.21 µM (inactive) | 3.3 µM (inactive) | 6.67 µM (inactive) |  |  |
| CC1CC(N2CCOCC2)=Nc2ccccc2N1C (stereo not given) | > 100 µM (inactive) |  | > 100 µM (inactive) | > 100 µM (inactive) | > 100 µM (inactive) | > 100 µM (inactive) | > 100 µM (inactive) | > 100 µM (inactive) | > 100 µM (inactive) | > 100 µM (inactive) | > 100 µM (inactive) | > 100 µM (inactive) | > 100 µM (inactive) | > 100 µM (inactive) | > 100 µM (inactive) | > 100 µM (inactive) |  | > 100 µM (inactive) |  |
